Experiments:
Type in all cases: cell-based
Moraxella catarrhalis = assay: MIC against Gram-negative bacteria: Moraxella catarrhalis; conditions: 5×10^5 CFU/mL; for MIC against M. catarrhalis: Moraxella catarrhalis
Summary of the method: (§1)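 MIC, the lowest recombinant protein concentration giving no bacterial growth, found by two-fold serial dilution of human EGF-domain proteins in triplicate. Inoculum 5×10^5 CFU/mL in LB from cultures at McFarland 0.5; plates incubated at 37° C, 175 rpm shaking.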

Pseudomonas aeruginosa = assay: MIC against Gram-negative bacteria: Pseudomonas aeruginosa; conditions: 5×10^5 CFU/mL; for MIC against P. aeruginosa: Pseudomonas aeruginosa
Summary of the method: as §1

Proteus mirabilis = assay: MIC against Gram-negative bacteria: Proteus mirabilis; conditions: 5×10^5 CFU/mL; for MIC against P. mirabilis: Proteus mirabilis
Summary of the method: as §1

Citrobacter diversus = assay: MIC against Gram-negative bacteria: Citrobacter diversus; conditions: 5×10^5 CFU/mL; for MIC against C. diversus: Citrobacter diversus
Summary of the method: as §1

Klebsiella pneumonia = assay: MIC against Gram-negative bacteria: Klebsiella pneumonia; conditions: 5×10^5 CFU/mL; for MIC against K. pneumonia: Klebsiella pneumonia
Summary of the method: as §1

Proteus vulgaris = assay: MIC against Gram-negative bacteria: Proteus vulgaris; conditions: 5×10^5 CFU/mL; for MIC against P. vulgaris: Proteus vulgaris
Summary of the method: as §1

Serratia marcescens = assay: MIC against Gram-negative bacteria: Serratia marcescens; conditions: 5×10^5 CFU/mL; for MIC against S. marcescens: Serratia marcescens
Summary of the method: as §1

E. coli DH5α = assay: Antibacterial activity: MIC and growth curve against E. coli DH5α in 96-well plate; conditions: minimal inhibitory concentration against E. coli DH5α; 96-well plate, 5×10^5 CFU/mL, 37° C., judged after 8 h
Summary of the method: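 MIC taken as lowest protein level with no bacterial growth, tracked by A600 every 30 min during 37 °C, 175 rpm culture. Two-fold protein series 50-12.5 μg/mL final, triplicate wells, against 5×10^5 CFU/mL of LB-washed mid-log cells.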

Aeromonas hydrophila = assay: MIC against Gram-negative bacteria: Aeromonas hydrophila; conditions: 5×10^5 CFU/mL; for MIC against A. hydrophila: Aeromonas hydrophila
Summary of the method: as §1

E. coli BL21 = assay: MIC against Gram-negative bacteria: E. coli BL21; conditions: 5×10^5 CFU/mL
Summary of the method: as §1

Enterobacter cloacae = assay: MIC against Gram-negative bacteria: Enterobacter cloacae; conditions: 5×10^5 CFU/mL; for MIC against E. cloacae: Enterobacter cloacae
Summary of the method: as §1

[1] = 10 h cultivation at 37° C., two-fold serial dilution

Row | Substance | MIC against M. catarrhalis (Moraxella catarrhalis; 10 h cultivation at 37° C.) [µg/mL] | MIC against P. aeruginosa (Pseudomonas aeruginosa; 10 h cultivation at 37° C.) [µg/mL] | MIC against P. mirabilis (Proteus mirabilis; 10 h cultivation at 37° C.) [µg/mL] | MIC against C. diversus (Citrobacter diversus; 10 h cultivation at 37° C.) [µg/mL] | MIC against K. pneumonia (Klebsiella pneumonia; 10 h cultivation at 37° C.) [µg/mL] | MIC against P. vulgaris (Proteus vulgaris; 10 h cultivation at 37° C.) [µg/mL] | MIC against S. marcescens (Serratia marcescens; 10 h cultivation at 37° C.) [µg/mL] | MIC (E. coli DH5α) [µg/mL] | MIC against A. hydrophila (Aeromonas hydrophila; 10 h cultivation at 37° C.) [µg/mL] | MIC against E. coli BL21 (E. coli BL21; 10 h cultivation at 37° C.) [µg/mL] | MIC against E. cloacae (Enterobacter cloacae; 10 h cultivation at 37° C.) [µg/mL] | also measured
1 | PRT1386 (GSRACPRDCRGRGRCENGVCVCNAGYSGEDC; listed as Homo sapiens) | 12.5 | 25 | 12.5 | 12.5 | 12.5 | 25 | 12.5 | 25 | 12.5 | 12.5 | 25 | 
2 | PRT727 (EFDDCQIWGICDQKCESRPGRHLCHCEEGYILERGQYCK; listed as Homo sapiens) |  |  |  |  |  |  |  | 12.5 |  |  |  | MIC M. catarrhalis (Moraxella catarrhalis; 96-well plate, 37° C., 10 h): 25 µg/mL; MIC P. aeruginosa (Pseudomonas aeruginosa; 96-well plate, 37° C., 10 h): 50 µg/mL; MIC P. mirabilis (Proteus mirabilis; 96-well plate, 37° C., 10 h): 50 µg/mL; MIC C. diversus (Citrobacter diversus; 96-well plate, 37° C., 10 h): 12.5 µg/mL; MIC K. pneumonia (Klebsiella pneumonia; 96-well plate, 37° C., 10 h): 12.5 µg/mL; MIC P. vulgaris (Proteus vulgaris; 96-well plate, 37° C., 10 h): 12.5 µg/mL; MIC S. marcescens (Serratia marcescens; 96-well plate, 37° C., 10 h): 50 µg/mL; MIC A. hydrophila (Aeromonas hydrophila; 96-well plate, 37° C., 10 h): 25 µg/mL; MIC E. coli BL21 (E. coli BL21; 96-well plate, 37° C., 10 h): 25 µg/mL; MIC E. cloacae (Enterobacter cloacae; 96-well plate, 37° C., 10 h): 50 µg/mL
3 | PRT1467 (QPQDCPPSTCLNGGTCHLGTRHHLACLCPEGFTGLYCE; listed as Homo sapiens) | 25 | 25 | 50 | 12.5 | 12.5 | 25 | 12.5 | 25 | 25 | 50 | 50 | 
4 | PRT1376 (ATRMCPADCRGRGRCVQGVCLCHVGYGGEDCG; listed as Homo sapiens) | 12.5 | 50 | 50 | 50 | 12.5 | 12.5 | 25 | 50 | 12.5 | 12.5 | 50 | 
5 | PRT1056 (DQDDCAPVGCSMYARCISEGEDATCQCLKGFAGDGKLCS; listed as Homo sapiens) |  |  |  |  |  |  |  | 50 |  |  |  | MIC M. catarrhalis (Moraxella catarrhalis; [1]): 12.5 µg/mL; MIC P. aeruginosa (Pseudomonas aeruginosa; [1]): 12.5 µg/mL; MIC P. mirabilis (Proteus mirabilis; [1]): 50 µg/mL; MIC C. diversus (Citrobacter diversus; [1]): 50 µg/mL; MIC K. pneumonia (Klebsiella pneumonia; [1]): 25 µg/mL; MIC P. vulgaris (Proteus vulgaris; [1]): 12.5 µg/mL; MIC S. marcescens (Serratia marcescens; [1]): 25 µg/mL; MIC A. hydrophila (Aeromonas hydrophila; [1]): 12.5 µg/mL; MIC E. coli BL21 (E. coli BL21; [1]): 25 µg/mL; MIC E. cloacae (Enterobacter cloacae; [1]): 50 µg/mL

Reference: patent US9833497B2, “Human originated EGF domain proteins and use of the same” (CHENGDU SOURCEBIO LIMITED-LIABILITY COMPANY, priority 2013, dated 2017)
